This passage reports IC50 results from patent US20230151034A1 (COCRYSTAL PHARMA, INC., priority 2020, published 2023).

Where two headings read alike, the source gives them in different places.

The target in one assay is SARS2 protease (Severe acute respiratory syndrome coronavirus 2, UniProt P0DTD1). Description: SARS-CoV-2 protease inhibition assay (SARS2 FRET protease assay). Conditions: Table E; SARS-CoV-2 protease inhibition; read-out: IC50. The class given is biochemical. The gist of the method: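 SARS-CoV-2 protease (25 nM) was incubated for 30 min at 30 °C with 1.3 μM quenched 5-FAM/TAMRA peptide substrate and compound (3-fold dilutions, 20 μM–1.0 nM). The buffer was 20 mM HEPES-Na pH 7, 120 mM NaCl, 0.4 mM EDTA, 0.01% Triton, 5% glycerol and 4 mM DTT. Fluorescence was read at ex 473 and em 519 nm, and IC50 was derived.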

Assay [1] concerns the target HuNV GGII.4 Norovirus protease (Norovirus GII.4 (human norovirus genogroup II genotype 4), UniProt P54634). Description: Norovirus protease FRET assay (HuNV GGII.4). The class given is biochemical. Conditions: FRET protease assay, read-out: HuNV GGII.4 IC50.
For assay [2], the target named is Norwalk GGI.1 Norovirus protease (Norovirus, UniProt Q83883). Description: Noro-Norwalk FRET protease assay (Norwalk GGI.1). The class given is biochemical, Norwalk virus. Conditions: FRET protease assay, read-out: Norwalk GGI.1 IC50. Here is the method: Viral protease assays: The antiviral activities of inhibitors were determined by FRET (Fluorescence Resonance Energy Transfer) assay. Purified viral protease was incubated with the protease substrate peptide (Edans-DFHLQ/GP-Dabcyl) and inhibitor, and IC50 values were subsequently determined by the fluorescence signals.
Norwalk GGI.1 Norovirus protease, sequence (Q83883 1101-1281): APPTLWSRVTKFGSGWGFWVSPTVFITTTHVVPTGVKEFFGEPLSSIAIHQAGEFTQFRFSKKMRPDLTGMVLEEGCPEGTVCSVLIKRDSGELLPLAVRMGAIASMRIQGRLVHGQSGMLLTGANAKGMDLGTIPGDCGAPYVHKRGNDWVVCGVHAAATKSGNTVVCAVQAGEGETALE
The Noro-Norwalk FRET protease assay was performed in 50 mM HEPES-Na pH 8, 50 mM NaCl, 0.4 mM EDTA, 4% glycerol, and 6 mM DTT. A self-quenching peptide substrate [5-FAM]-[…]-[TAMRA] was custom synthesized by Anaspec. Compounds were diluted in 3-fold serial dilutions to final concentrations of 200 μM to 10.2 nM. Noro protease was added to a final concentration of 1-7 μM, depending on the enzyme activity level, and the peptide substrate was added to a final concentration of 10 μM. The assay was incubated 90 minutes at 37° C. and read in a Perkin Elmer Envision with excitation at 473 nm and emission measurement at 519 nm.

HuNV GGII.4 Norovirus protease, sequence (P54634 1009-1189): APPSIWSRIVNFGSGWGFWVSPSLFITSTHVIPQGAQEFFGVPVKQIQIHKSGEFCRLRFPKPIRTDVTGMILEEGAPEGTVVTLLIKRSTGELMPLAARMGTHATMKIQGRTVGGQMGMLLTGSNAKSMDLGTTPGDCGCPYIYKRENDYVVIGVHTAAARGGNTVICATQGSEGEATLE

Broadly, the IC50 is the concentration needed to halve the response being measured. On to `CCCCCN(C)C(=O)CC[C@@H](C=O)NC(=O)[C@H](CC1CCCCC1)NC(=O)OCc1cccc(Cl)c1` [Compound A7, 3-chlorobenzyl ((S)-3-cyclohexyl-1-(((S)-5-(methyl(pentyl)amino)-1,5-dioxopentan-2-yl)amino)-1-oxopropan-2-yl)carbamate], for which the IC50 at SARS2 protease was found to be 3.2 µM; in assay [1] (Table C), 11.1 µM; in assay [2] (Table C), 1.6 µM.
On to `CCOP(=O)(OCC)C(O)[C@H](CCC(=O)N(C)Cc1ccccc1)NC(=O)[C@H](CC1CCCCC1)NC(=O)OCc1cccc(Cl)c1` (stereo partly drawn) [Compound A13, 3-Chlorobenzyl ((2S)-1-(((2S)-5-(benzyl (methyl)amino)-1-(diethoxyphosphoryl)-1-hydroxy-5-oxopentan-2-yl)amino)-3-cyclohexyl-1-oxopropan-2-yl) carbamate], for which the IC50 was over 200 µM at SARS2 protease, over 200 µM in assay [1] (Table C) and 166 µM in assay [2] (Table C).
For `CCOP(=O)(OCC)C(O)[C@H](CCC(=O)N1CCOC(c2ccccc2)C1)NC(=O)[C@H](CC1CCCCC1)NC(=O)OCc1cccc(Cl)c1` (stereo partly drawn) [Compound A54, 3-Chlorobenzyl ((2S)-3-cyclohexyl-1-(((2S)-1-(diethoxyphosphoryl)-1-hydroxy-5-oxo-5-(2-phenylmorpholino)pentan-2-yl)amino)-1-oxopropan-2-yl)carbamate], the IC50 at SARS2 protease is 19 µM; in assay [1] (Table C) it was 161 µM; in assay [2] (Table C), 36.3 µM.
On to `CCCCCCCC1CCC/C=C/CC(C(=O)N(C)C)C[C@@H](C=O)NC(=O)C(CC(C)C)NC1=O` (stereo partly shown) [Compound B4], for which the figures for the IC50 (on SARS2 protease; in assay [1] (Table D); in assay [2] (Table D)) were 156 µM, 149 µM and 149 µM, respectively.
Consider `O=C[C@H](CCC(=O)N1CCCCc2ccccc21)NC(=O)[C@H](CC1CCCCC1)NC(=O)OCc1cccc(Cl)c1` [Compound A107, 3-Chlorobenzyl ((S)-3-cyclohexyl-1-(((S)-1,5-dioxo-5-(2,3,4,5-tetrahydro-1H-benzo[b]azepin-1-yl)pentan-2-yl)amino)-1-oxopropan-2-yl)carbamate], for which the IC50 in assay [1] (Table C) was found to be 200 µM; in assay [2] (Table C) it was 39.6 µM.
Consider `O=C[C@H](CCC(=O)N1CCOc2ccccc2C1)NC(=O)[C@H](CC1CCCCC1)NC(=O)OCc1cccc(Cl)c1` [Compound A57, 3-Chlorobenzyl ((S)-3-cyclohexyl-1-(((S)-5-(2,3-dihydrobenzo[f][1,4]oxazepin-4(5H)-yl)-1,5-dioxopentan-2-yl)amino)-1-oxopropan-2-yl)carbamate], for which the IC50 in assay [1] (Table C) is 2.6 µM; in assay [2] (Table C) it was 2.3 µM.
In the same order, the values of `CN(CCc1ccccc1)C(=O)CC[C@H](NC(=O)[C@H](CC1CCCCC1)NC(=O)OCc1cccc(Cl)c1)C(O)S(=O)(=O)O` (stereo in doubt) [Compound A114, Sodium (2S)-2-((S)-2-((((3-chlorobenzyl)oxy)carbonyl)amino)-3-cyclohexylpropanamido)-1-hydroxy-5-(methyl (phenethyl)amino)-5-oxopentane-1-sulfonate] are 12.1 µM and 5.2 µM.
Taken in the same sequence, the figures for `CN(CCc1ccncc1)C(=O)CC[C@@H](C=O)NC(=O)[C@H](CC1CCCCC1)NC(=O)OCc1cccc(Cl)c1` [Compound A68, 3-Chlorobenzyl ((S)-3-cyclohexyl-1-(((S)-5-(methyl (2-(pyridin-4-yl)ethyl)amino)-1,5-dioxopentan-2-yl)amino)-1-oxopropan-2-yl) carbamate] were 16.7 µM and 4.6 µM.
In the case of `O=C[C@H](CCC(=O)N1CCOCc2ccccc21)NC(=O)[C@H](CC1CCCCC1)NC(=O)OCc1cccc(Cl)c1` [Compound A108, 3-Chlorobenzyl ((S)-3-cyclohexyl-1-(((S)-5-(2,3-dihydrobenzo[e][1,4]oxazepin-1(5H)-yl)-1,5-dioxopentan-2-yl)amino)-1-oxopropan-2-yl)carbamate], the 50% inhibitory concentration (IC50) was determined as 13.4 µM in assay [1] (Table C) and 8 µM in assay [2] (Table C).
